# According to US20170049908A1 (priority 2015, published 2017):
# Read-outs that look alike come from different tables or passages of the source.
# Experiments:
# [1] = tested on: HL60, U937, MV411, Hut78, H929, and RAMOS; experiment: Cytotoxic activity on six human blood cancer cell types with and without ATRA (overall statements); type: cell-based; conditions: all cell lines tested except RAMOS
# Description: Agent loading (e.g., “n” of Formula (I)) was determined to be about 4.
# In this study and as determined by antibody cell staining, and with the exception of HL-60 cells, all cells expressed various levels of cell surface CD38 prior to ATRA addition.
# Ramos cells [2] = conditions: for EC50: read-out: EC50 in picoM, Ramos, Table 3, agents and agent-linker intermediates, 3 days incubation
# SU-DHL-8 cells [3] = conditions: for EC50: read-out: EC50 in picoM, SUDHL8, Table 3, agents and agent-linker intermediates, 3 days incubation
# SU-DHL-8 cells [4] = experiment: cells; conditions: Homo sapiens, SU-DHL-8, 72 h, read-out: EC50 in picoM, SUDHL8
# Ramos cells [5] = experiment: cells; conditions: Homo sapiens, 72 h, read-out: EC50 in picoM, Ramos
SMILES,EC50 (SU-DHL-8 cells [4]) [nM],EC50 (Ramos cells [5]) [nM],also measured
"CC1=C(/C=C/C(C)=C/C=C/C(C)=C/C(=O)O)C(C)(C)CCC1 [ATRA, all-trans-retinoic acid]",,,effect of ATRA alone on cell growth [1]: slowed cell growth
"C[C@]12CC[C@H](O)C[C@H]1CC[C@@H]1[C@@H]2CC[C@]2(C)[C@@H](c3ccc(=O)oc3)CC[C@]12O [Bufalin, reference compound]",16,7.3,"cytotoxic effect in Ramos cells, in words (Ramos cells [2]): modestly active; cytotoxic effect in SU-DHL-8 cells, in words (SU-DHL-8 cells [3]): modestly active"
"C[C@]12CC[C@H](OC3OC[C@H](N)[C@@H](O)[C@@H]3O)C=C1CC[C@@H]1[C@@H]2CC[C@]2(C)[C@@H](c3ccc(=O)oc3)CC[C@]12O (stereo partly drawn) [CEN09-106, Scillarenin-4-amino-4-deoxy-L-xylopyranoside]",,,EC50 (Ramos cells [2]): 1.9 nM; EC50 (SU-DHL-8 cells [3]): 2.07 nM
"C[C@]1(OC(=O)NCCCN2CCN(CCCN)CC2)CC[C@@]2(C)[C@H](CC[C@@H]3[C@@H]2CC[C@]2(C)[C@](C)(c4ccc(=O)oc4)CC[C@]32O)C1 [CEN-371, 4-(3-{(1S,2S,5S,7R,10R,11S,14S,15R)-11-Hydroxy-2,5,14,15-tetramethyl-14-(6-oxo-3-pyranyl)tetracyclo[8 0.7.0.02, 7.011, 15]heptadec-5-yloxycarbonylamino}propyl)-1-(3-aminopropyl)piperazine]",,,"cytotoxic effect in Ramos cells, in words (Ramos cells [2]; FIG. 4 legend, unconjugated antibody, linker-agent and agents): modestly active; EC50 (Ramos cells [2]): 7.81 nM; cytotoxic effect in SU-DHL-8 cells, in words (SU-DHL-8 cells [3]; FIG. 2 and FIG. 3 legends, unconjugated antibody, linker-agent and agents): modestly active; EC50 (SU-DHL-8 cells [3]): 11 nM"
"CN(CCCN)CCCNC(=O)O[C@H]1CC[C@@]2(C)[C@H](CC[C@@H]3[C@@H]2CC[C@]2(C)[C@H](c4ccc(=O)oc4)CC[C@]32O)C1 [CEN-372, 5-[(1S,2S,5S,7R,10R,11S,14S,15R)-5-{3-[N-Methyl(3-aminopropyl)amino]propylaminocarbonyloxy}-11-hydroxy-2,15-dimethyltetracyclo[8.7.0.02, 7.011, 15]heptadec-14-yl]-2-pyranone]",4.4,3.6,
"C[C@]12CC[C@H](OC(=O)NCCCNCCCN)C[C@H]1CC[C@@H]1[C@@H]2CC[C@]2(C)[C@H](c3ccc(=O)oc3)CC[C@]12O [CEN-373, 5-{(1S,2S,5S,7R,10R,11S,14S,15R)-5-[3-(3-Aminopropylamino)propylaminocarbonyloxy]-11-hydroxy-2,15-dimethyltetracyclo[8.7.0.02, 7.011, 15]heptadec-14-yl}-2-pyranone]",5.9,4,
"C[C@]1(OC(=O)NCCCN2CCN(CCCN)CC2)CC[C@@]2(C)[C@H](CC[C@@H]3[C@@H]2CC[C@]2(C)[C@@](C)(C4=CC(=O)OC4)CC[C@]32O)C1 [CEN-381, 4-(3-{(1S,2S,5S,7R,10R,11S,14R,15R)-11-Hydroxy-2,5,14,15-tetramethyl-14-(5-oxo-2H-fur-3-yl)tetracyclo[8.7.0.02, 7.011, 15]heptadec-5-yloxycarbonylamino}propyl)-1-(3-aminopropyl)piperazine]",> 50,> 50,
"C[C@]12CC[C@H](O)C[C@H]1CC[C@@H]1[C@@H]2CC[C@]2(C)[C@@H](C3=CC(=O)OC3)CC[C@]12O [Digitoxigenin, reference compound]",> 50,> 50,
